Measurements from article PMC5216742, “Discovery and characterization of a novel potent type II native and mutant BCR-ABL inhibitor (CHMFL-074) for Chronic Myeloid Leukemia (CML)” (Oncotarget, 2016).
pIC50, pKd: −log10 of the molar value.

Experiments:
RET(M918T) = biological target: T1, RET(M918T) (Homo sapiens, UniProt P07949, M918T); assay: KinomeScan profiling; format: binding; settings: 1 µM CHMFL-074; read-out: % Control
T1 construct: purchased DiscoveRx (KinomeScan service)

c-KIT = biological target: T2, c-KIT (Homo sapiens, UniProt P10721); assay: Invitrogen Z'LYTE biochemical kinase assay
T2 construct: made in house
T2 sequence (P10721 26-976): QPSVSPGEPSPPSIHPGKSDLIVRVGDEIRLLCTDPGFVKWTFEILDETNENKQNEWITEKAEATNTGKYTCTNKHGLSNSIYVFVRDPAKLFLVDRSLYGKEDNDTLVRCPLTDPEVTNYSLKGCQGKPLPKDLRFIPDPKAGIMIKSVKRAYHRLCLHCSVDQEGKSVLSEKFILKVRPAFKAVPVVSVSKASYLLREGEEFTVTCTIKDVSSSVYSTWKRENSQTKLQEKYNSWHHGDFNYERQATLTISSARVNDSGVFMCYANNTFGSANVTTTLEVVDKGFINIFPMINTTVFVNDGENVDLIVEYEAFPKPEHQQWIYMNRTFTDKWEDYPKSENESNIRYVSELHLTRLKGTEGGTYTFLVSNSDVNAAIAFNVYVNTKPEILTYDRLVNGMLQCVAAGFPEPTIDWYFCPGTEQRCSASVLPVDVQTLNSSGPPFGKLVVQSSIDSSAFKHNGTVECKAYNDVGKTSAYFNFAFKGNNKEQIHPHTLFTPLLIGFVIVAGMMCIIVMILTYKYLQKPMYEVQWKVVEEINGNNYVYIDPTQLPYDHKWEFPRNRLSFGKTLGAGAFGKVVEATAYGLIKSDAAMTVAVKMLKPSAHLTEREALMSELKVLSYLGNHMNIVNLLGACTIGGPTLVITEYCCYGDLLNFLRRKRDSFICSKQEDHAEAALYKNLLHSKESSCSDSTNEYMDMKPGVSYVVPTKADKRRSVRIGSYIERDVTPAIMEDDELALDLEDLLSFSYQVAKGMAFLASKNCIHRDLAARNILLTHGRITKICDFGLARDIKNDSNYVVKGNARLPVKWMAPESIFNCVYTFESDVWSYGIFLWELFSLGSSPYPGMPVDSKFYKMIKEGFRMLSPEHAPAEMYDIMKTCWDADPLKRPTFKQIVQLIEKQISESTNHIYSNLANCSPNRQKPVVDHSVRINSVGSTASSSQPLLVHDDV
Description: The fluorescence resonance energy transfer-based Z'-LYTE kinase assay (Invitrogen, USA) was used to evaluate the IC50 value of CHMFL-074 for inhibition of ABL and KIT kinase. […] After 1 hour incubation, the reaction was developed and terminated, and the fluorescence measured with an automated plate reader (SpectraMax I3, USA). A dose-response curve was fitted using Prism 5.0 (GraphPad Software Inc., San Diego, CA).

ABL1 kinase = biological target: T3, ABL1 kinase (Homo sapiens, UniProt P00519); assay: Microscale thermophoresis (MST) binding Kd assay; settings: binding Kd against ABL1 kinase
T3 construct: A construct encoding c-ABL residues 229–500 with a His tag; made in house; host or cells: SF9 insect cells (baculovirus, pFASTHTA)
Description: A construct encoding c-ABL residues 229–500 with a His tag was cloned into baculovirus expression vector pFASTHTA. The protein was expressed by infecting SF9 cells with high titer viral stocks for 48 hours. Cells were harvested and lysed in 30 mM Tris pH 7.4, 150 mM NaCl, 3 mM KCl, 10% glycerol, 1 mM PMSF, 2 mM TCEP, 1 mM ADP, 20 mM Imidazole. The supernatant was loaded to Ni-NTA Column (QIAGEN, 1018244). Then the proteins were gradient washed using the same buffer with 50 mM, 100 mM imidazole, then the ABL protein was eluted with Elution buffer (20 mM Tris, 500 mM NaCl, 1% glycerol, 1 mM TCEP, 0.5 mM ADP, 300 mM Imidazole, pH 8.0). The eluted protein was loaded on desalt column PD-10(GE) to change the buffer to 20 mM Tris, 500 mM NaCl, 1% glycerol, 2 mM TCEP, pH 8.0. The protein was concentrated to 1 mg/ml and aliquots were frozen and stored at −80 °C.
The Kd was measured using the Monolith NT.115 from Nanotemper Technologies. Proteins were fluorescently labeled according to the manufacturer's protocol. […] The sample was loaded into the NanoTemper glass capillaries and microthermophoresis carried out using 20% LED power and 30% MST Power. KD were calculated using the mass action equation via the NanoTemper software from duplicate reads of triplicate experiments.

[1] = test system: K562, KU812 and MEG-01 cells; assay: Cell cycle analysis; format: cell-based; settings: K562 (24 h), KU812 (12 h), MEG-01 (24 h)
Description: K562, KU812 and MEG01 cells were treated with serially diluted CHMFL-074 for 12 or 24 hours. The cells were fixed in 70% cold ethanol and incubated at −20°C overnight, then stained with PI/RNase staining buffer (BD Pharmingen). Flow cytometry was performed using a FACS Calibur (BD), and results were analyzed by ModFit software.

CHO = assay: Anti-proliferation, intact cancer cell lines; format: cell-based, Chinese hamster; settings: Cricetulus griseus, 72 h
Description: The K562 (CML), KU812 (CML), MEG-01 (CML), MV4-11 (AML), MOLM14 (AML), U937 (AML), REC-1 (Human B-cell lymphoma cell), HL-60 (Human promyelocytic leukemia cells), MEC-1(CLL), CHL (Hamster lung cell), CHO (Hamster ovary cell) cell lines were obtained from American Type Culture Collection (Manassas, VA). All the cells were grown in a humidified incubator (Thermo, USA) at 37°C under 5% CO2. CHO cells were maintained in DMEM supplemented with 10% FBS, 1% penicillin/strepto-mycin. MV4-11 (AML) were grown in IMDM supplemented with 10% FBS, 1% penicillin/streptomycin. […] For suspension cells, cells were collected by spinning down at 800 rpm/min for 5 min before use.
A density of 1 × 10^4 to 2.5 × 10^4 cells/mL cells were mixed with various concentrations of compounds then 100 μL suspension was added to each well and incubated for 72 hours. Cell viability was determined using the CellTiter-Glo assay (Promega, USA) or CCK-8 assay (Beboy, China). Both assays were performed according to the manufacturer instructions. For CellTiter-Glo assay, luminescence was determined in a multi-label reader (Envision, PerkinElmer, USA). […] Data were normalized to control group (DMSO). GI50 were calculated using Prism 6.0 (GraphPad Software, San Diego, CA).

[2] = biological target: T4, ABL1(H396P)-phosphorylated (Homo sapiens, UniProt P00519, H396P); assay: KinomeScan profiling; format: binding; settings: 1 µM CHMFL-074; read-out: % Control
T4 construct: purchased DiscoveRx (KinomeScan service)

[3] = biological target: T5, ABL1(Q252H)-nonphosphorylated (Homo sapiens, UniProt P00519, Q252H); assay: KinomeScan profiling; format: binding; settings: 1 µM CHMFL-074; read-out: % Control
T5 construct: purchased DiscoveRx (KinomeScan service)

KIT(L576P) = biological target: T6, KIT(L576P) (Homo sapiens, UniProt P10721, L576P); assay: KinomeScan profiling; format: binding; settings: 1 µM CHMFL-074; read-out: % Control
T6 construct: purchased DiscoveRx (KinomeScan service)
T6 sequence (P10721 26-976 L576P): as the sequence (P10721 26-976) above, with L551P counted along it

[4] = test system: BCR-ABL positive CML patient primary cells; assay: Patient primary cell proliferation assay; format: cell-based; settings: Homo sapiens, read-out: half effective inhibitory concentrations
Description: Mononuclear cells were isolated from CML patients or healthy donors by density-gradient centrifugation through Ficoll (Beijing Solarbio Science & Technology Co., Ltd., Beijing, China) at 400 g for 30 min, followed by two washes in 1× phosphate-buffered saline. Cells were then cultured in liquid culture (RPMI1640, supplemented with 20% FBS). All blood samples from CML patients and healthy donors were obtained through written consent under approval of the Chinese Academy of Sciences Institutional Review Board. The ethics committees approved the consent Procedure. CML primary patient cells were tested in liquid culture (RPMI1640, supplemented with 20% FBS) in the presence of different concentrations of CHMFL-074. The trypan blue exclusion assay was used for quantification of cells for seeding for before Cell-Titer Glo assays (Promega, USA). The Cell-Titer Glo assay was used for proliferation studies and carried out according to manufacturer's instructions. Cell viability is reported as percentages of control (untreated) cells.

ABL1-phosphorylated = biological target: T7, ABL1-phosphorylated (Homo sapiens, UniProt P00519); assay: KinomeScan profiling; format: binding; settings: 1 µM CHMFL-074; read-out: % Control
T7 construct: purchased DiscoveRx (KinomeScan service)

T1 sequence (P07949 29-1114 M918T): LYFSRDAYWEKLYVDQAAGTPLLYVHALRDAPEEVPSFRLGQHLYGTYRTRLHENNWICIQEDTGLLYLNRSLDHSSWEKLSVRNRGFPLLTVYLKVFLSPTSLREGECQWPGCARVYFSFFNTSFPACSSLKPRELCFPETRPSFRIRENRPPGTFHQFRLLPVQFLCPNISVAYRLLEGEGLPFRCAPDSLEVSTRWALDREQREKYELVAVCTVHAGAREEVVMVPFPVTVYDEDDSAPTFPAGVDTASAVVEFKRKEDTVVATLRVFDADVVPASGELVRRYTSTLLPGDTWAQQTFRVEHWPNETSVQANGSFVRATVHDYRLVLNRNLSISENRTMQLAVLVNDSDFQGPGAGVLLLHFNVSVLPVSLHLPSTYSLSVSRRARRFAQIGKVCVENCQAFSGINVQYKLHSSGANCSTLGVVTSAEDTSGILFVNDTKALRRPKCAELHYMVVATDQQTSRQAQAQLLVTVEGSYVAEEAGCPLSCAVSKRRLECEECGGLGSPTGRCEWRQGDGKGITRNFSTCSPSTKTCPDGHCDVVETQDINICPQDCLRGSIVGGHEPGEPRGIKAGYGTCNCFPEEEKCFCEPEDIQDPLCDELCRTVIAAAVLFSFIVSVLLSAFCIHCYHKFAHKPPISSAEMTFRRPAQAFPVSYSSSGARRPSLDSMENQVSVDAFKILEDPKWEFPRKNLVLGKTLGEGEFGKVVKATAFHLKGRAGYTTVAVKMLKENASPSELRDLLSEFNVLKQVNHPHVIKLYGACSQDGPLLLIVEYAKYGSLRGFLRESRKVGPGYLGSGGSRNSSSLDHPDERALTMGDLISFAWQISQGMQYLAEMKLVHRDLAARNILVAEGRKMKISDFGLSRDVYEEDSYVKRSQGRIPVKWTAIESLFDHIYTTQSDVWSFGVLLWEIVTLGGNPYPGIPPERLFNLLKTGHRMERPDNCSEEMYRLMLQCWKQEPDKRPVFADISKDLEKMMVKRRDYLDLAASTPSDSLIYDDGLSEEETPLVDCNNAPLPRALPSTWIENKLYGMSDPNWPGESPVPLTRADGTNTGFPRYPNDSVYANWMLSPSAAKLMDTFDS

Compound: Cc1ccc(NC(=O)c2ccc(CN3CCN(C)CC3)c(C(F)(F)F)c2)cc1OC1CCN(C(=O)c2cccnc2)CC1 [CHMFL-074]
- remaining binding at 1 µM (RET(M918T)): 0.15%
- fold less active against c-KIT than ABL1 kinase (c-KIT): about 12 fold
- pIC50 (c-KIT; ATP 300 μM, read-out: IC50 against c-KIT): 6.54
- pKd (ABL1 kinase): 7.62
- concentration inducing G0/G1 phase cell cycle arrest [1]: ≥ 0.3 µM
- GI50 (CHO): > 10 µM
- remaining binding at 1 µM [2]: 0.3%
- remaining binding at 1 µM [3]: 0.75%
- remaining binding at 1 µM (KIT(L576P)): 1%
- pIC50 [4]: 6.00 to 6.52
- remaining binding at 1 µM (ABL1-phosphorylated): 0.2%
